Results taken from patent US20040009964A1, “Compositions and methods for the treatment of matrix metalloproteinase-related diseases” (BioInterface Technologies, Inc., priority 2002, published 2004).
“Also recorded” adds a separate entry of the source.

Key:
[1] = biological target: human neutrophil collagenase (Homo sapiens, UniProt P22894); conditions: cited from earlier work; for Effect of metal ion binding on collagenase activity: binding to human neutrophil collagenase
[2] = tested on: S. epidermidis (ATCC 12228); conditions: overnight at 37° C., dilutions 1.95 to 250 μg/ml
Method: (§1) In vitro antimicrobial activity was calculated by determining the minimum inhibitory concentration (MIC) for a silver thiosulfate ion complex composition; for example, the silver thiosulfate ion complex produced according to Example 3. The antimicrobial activity of this embodiment was determined by using serial two-fold dilutions ranging from 1.95 to 250 μg/ml using tryptic soy broth (Difco) as a diluent. Each dilution was inoculated with a 0.005 ml aliquot from a 24-hour microbial growth culture having a concentration of approximately 10^5 to 10^7 CFU/ml. The dilutions were incubated overnight at 37° C. The MIC was determined by identifying the lowest dilution (expressed as μg/ml) of the silver thiosulfate ion complex that was without evidence of growth (i.e. was not cloudy).

[3] = tested on: P. aeruginosa (ATCC 27853); conditions: overnight at 37° C., dilutions 1.95 to 250 μg/ml
Method: as §1

E. coli (ATCC 25922) = conditions: overnight at 37° C., dilutions 1.95 to 250 μg/ml
Method: as §1

S. aureus (ATCC 25923) = conditions: overnight at 37° C., dilutions 1.95 to 250 μg/ml
Method: as §1

matrix metalloproteinase = conditions: synoviocyte MMP activity; cited from earlier work

Chain of human neutrophil collagenase (P22894 101-467): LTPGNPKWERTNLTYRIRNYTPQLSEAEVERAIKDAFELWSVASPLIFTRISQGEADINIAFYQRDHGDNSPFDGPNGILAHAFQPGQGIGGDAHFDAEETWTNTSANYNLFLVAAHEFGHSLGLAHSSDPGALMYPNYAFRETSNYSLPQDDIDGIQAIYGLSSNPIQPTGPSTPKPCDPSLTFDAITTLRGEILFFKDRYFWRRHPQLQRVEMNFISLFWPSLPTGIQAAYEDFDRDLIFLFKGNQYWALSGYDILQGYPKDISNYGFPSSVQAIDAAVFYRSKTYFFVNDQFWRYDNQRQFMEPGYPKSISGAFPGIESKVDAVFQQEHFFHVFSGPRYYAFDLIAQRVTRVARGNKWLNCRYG

[Au+] [Au(I)]
Effect of metal ion binding on collagenase activity [1]: noncompetitive inhibition; also recorded: collagenase inhibition

[Cu+2] [Cu(II)]
Effect of metal ion binding on collagenase activity [1]: noncompetitive inhibition; also recorded: collagenase inhibition

[Ag+] [Ag(I)]
Direct inhibition of matrix metalloproteinase ([1]; Ag(I) concentrations up to 10 μM, higher concentrations precipitated in the culture media): did not directly inhibit

[Zn+2] [Zn(II)]
Effect of metal ion binding on collagenase activity [1]: retention of activity

[Cd+2] [Cd(II)]
Effect of metal ion binding on collagenase activity [1]: noncompetitive inhibition; also recorded: collagenase inhibition

Na4[Ag2(S2O3)3]H2O [Silver Thiosulfate Ion Complexes]
MIC [2]: <1.95 µg/mL
MIC [3]: <1.95 µg/mL
MIC (E. coli (ATCC 25922)): <1.95 µg/mL
MIC (S. aureus (ATCC 25923)): <1.95 µg/mL

[Hg+2] [Hg(II)]
Effect of metal ion binding on collagenase activity [1]: collagenase inhibition

O=[N+]([O-])[O-].O=[N+]([O-])[O-].O=[N+]([O-])[O-].[Ga+3] [gallium nitrate]
Inhibition of matrix metalloproteinase activity (matrix metalloproteinase): can inhibit matrix metalloproteinase activity
